USRE32455E, “A-21978 antibiotics and process for their production” (priority 1985, dated 1987)
Converted amounts (≈) assume the structure as drawn. “And” between values parts separate entries of the source, which are not always exact repeats. Identical values can stand only once.

Assays:
[1] = test system: Streptococcus pneumoniae Park I; test: MIC, standard broth-dilution test; assay type: cell-based; conditions: Table XII, sodium salt
[2] = test system: Group D Streptococcus 282; test: MIC, standard broth-dilution test; assay type: cell-based; conditions: Table XII, sodium salt
[3] = test system: Streptococcus faecalis (Guze); test: In vitro susceptibility (MIC) of the S. faecalis Guze strain; assay type: cell-based; conditions: Table XVI
[4] = test system: Streptococcus pneumoniae Park I; test: MIC, standard agar-dilution test; assay type: cell-based; conditions: Table XI, sodium salt
[5] = test system: Peptostreptococcus anaerobius; test: MIC anaerobic bacteria, standard agar-dilution test; assay type: cell-based
[6] = test system: Viridans Streptococcus 9943; test: MIC, standard broth-dilution test; assay type: cell-based; conditions: Table XII, sodium salt
Staphylococcus aureus [7] = test: MIC, agar dilution (Table XV); assay type: cell-based
Description: ^1 MIC = minimum inhibitory concentration (μg/ml), agar dilution

[8] = test system: pathogenic organisms, particularly gram-positive bacteria; test: Inhibition of growth of pathogenic organisms; assay type: cell-based
[9] = Electrometric titration in 66% aqueous dimethylformamide; assay type: physicochemical; conditions: 66% DMF; Na salt; factors: two determinations
Toxicity (LD50) in rat = assay type: in vivo; conditions: IV
[10] = test system: Peptococcus asaccharolyticus; test: MIC anaerobic bacteria, standard agar-dilution test; assay type: cell-based
[11] = test system: Peptostreptococcus intermedius; test: as above; assay type: cell-based
[12] = test system: Streptococcus faecalis (Guze); test: Streptococcus faecalis descending rat pyelonephritis test; assay type: in vivo, rat (female albino, Cox-Wistar); conditions: 1.0 mg/kg × 7, subcutaneous
Procedure: In this test, the bacterial culture used was Streptococcus faecalis (Guze). The culture was grown on Trypticase soy agar (BBL), suspended in brain heart infusion broth (BBL), divided into 0.2-ml portions, and frozen in liquid nitrogen. Bacterial suspensions for rat inoculations were prepared daily by seeding a 50-ml flask of trypticase soy broth (BBL) from a frozen ampoule and growing the culture overnight at 37° C. on a shaker. The S. faecalis culture was diluted to 5×10^8 colony-forming units per ml. Test compounds were injected subcutaneously once daily for seven days. All compounds were suspended in 0.125% carboxymethylcellulose.
The experimental rat infections were accomplished by the following procedure. Female, random-bred albino rats (Cox-Wistar) weighing 190 to 210 g were anesthetized by intraperitoneal injection of 12 mg of sodium methohexital supplemented as necessary. The experimental pyelonephritis model was based on the studies of Guze and Beeson in which the left ureter was occluded for 20 min, followed by injection of 0.5 ml of the test organism in the femoral vein. Antimicrobial therapy was commenced 4 to 5 hrs postinfection. Four hours after the last treatment the rats were sacrificed, and the left kidney was removed and homogenized in a Duall grinder containing 9 ml of physiological saline. This represented a 10^-1 dilution of the kidney tissue. Additional 10-fold dilutions in saline were based on the anticipated bacterial cells present in the tissue homogenate. Finally, duplicate agar pour plates were made from several of these dilutions, and the plates were incubated overnight at 37° C. The therapeutic results were expressed in two ways: (i) the percentage of rats with kidney counts of less than 10^2 per g of kidney tissue, referred to as "cures," and (ii) the percentage of rats with at least a 4-log10 reduction in bacterial titer compared with infected control kidneys. Control rats were treated with 0.125% carboxymethylcellulose only. Viable cell counts in kidney tissue from control rats with S. faecalis ranged from 1.2×10^8 to 4.6×10^8 per g of homogenized tissue.

Toxicity (LD50) in mouse = assay type: in vivo
Streptococcus pneumoniae [13] = test: MIC, agar dilution (Table XV); assay type: cell-based
[14] = test system: Staphylococcus aureus 3055; test: MIC, standard broth-dilution test; assay type: cell-based; conditions: Table XII, sodium salt
[15] = test system: Neisseria gonorrhoeae 111076-4; test: MIC, standard agar-dilution test; assay type: cell-based; conditions: Table XI, sodium salt
Clostridium septicum = test: MIC anaerobic bacteria, standard agar-dilution test; assay type: cell-based
Peptococcus prevoti = test: as above; assay type: cell-based
[16] = test system: Viridans Streptococcus 9943; test: MIC, standard agar-dilution test; assay type: cell-based; conditions: Table XI, sodium salt
[17] = test system: Fusobacterium necrophorum; test: MIC anaerobic bacteria, standard agar-dilution test; assay type: cell-based
[18] = test system: Staphylococcus aureus 3055; test: MIC, standard agar-dilution test; assay type: cell-based; conditions: Table XI, sodium salt
Streptococcus pyogenes [19] = test: MIC, agar dilution (Table XV); assay type: cell-based
Eubacterium aerofaciens = test: MIC anaerobic bacteria, standard agar-dilution test; assay type: cell-based
Actinomyces isaelii = test: as above; assay type: cell-based
Micrococcus luteus = test: Bioassay, paper-disc agar-diffusion; conditions: Na salts; Table VIII
[20] = test system: Streptococcus pyogenes C203; test: MIC, standard agar-dilution test; assay type: cell-based; conditions: Table XI, sodium salt
Clostridium perfringens = assay type: cell-based; conditions: anaerobic, agar-dilution
Fusobacterium symbiosum = test: MIC anaerobic bacteria, standard agar-dilution test; assay type: cell-based
Propionibacterium acnes = test: as above; assay type: cell-based
[21] = test system: Streptococcus pyogenes C203; test: MIC, standard broth-dilution test; assay type: cell-based; conditions: Table XII, sodium salt
Bacteroides fragilis = test: MIC anaerobic bacteria, standard agar-dilution test; assay type: cell-based
[22] = test system: Group D Streptococcus 282; test: MIC, standard agar-dilution test; assay type: cell-based; conditions: Table XI, sodium salt
Staphylococcus aureus [23] = test: Experimental bacterial infection in mice, ED50; assay type: in vivo; conditions: two doses, subcutaneous administration
Procedure: (§1) When two doses of test compound were administered to mice in illustrative infections, the activity observed was measured as an ED50 value [effective dose in mg/kg to protect fifty percent of the test animals: See Warren Wick, et al., J. Bacteriol. 81, 233-235 (1961)].

Streptococcus pneumoniae [24] = test: Experimental bacterial infection in mice, ED50; assay type: in vivo; conditions: two doses, subcutaneous administration
Procedure: as §1

Streptococcus pyogenes [25] = test: Experimental bacterial infection in mice, ED50; assay type: in vivo; conditions: two doses
Procedure: as §1

Structure (SMILES)	MIC [1]	MIC [2]	MIC [3]	MIC [4]	MIC [5]	MIC [6]	MIC (Staphylococcus aureus [7])	growth inhibition [8]	pKa (first group) [9]	LD50 (Toxicity (LD50) in rat)	MIC [10]	MIC [11]	Percent of Rats Cured [12]	Percent of Rats with a 4-Log Titer Decrease [12]	LD50 (Toxicity (LD50) in mouse; IV)	LD50 (Toxicity (LD50) in mouse; SC)	MIC (Streptococcus pneumoniae [13])	MIC [14]	MIC [15]	MIC (Clostridium septicum)	also measured
CCC(C)CCCCCCC(=O)N[C@@H](Cc1c[nH]c2ccccc12)C(=O)NC(CC(N)=O)C(=O)N[C@@H](CC(=O)O)C(=O)N[C@@H]1C(=O)NCC(=O)N[C@@H](CCCN)C(=O)N[C@@H](CC(=O)O)C(=O)N[C@H](C)C(=O)N[C@@H](CC(=O)O)C(=O)NCC(=O)N[C@H](CO)C(=O)N[C@@H]([C@H](C)CC(=O)O)C(=O)N[C@@H](CC(=O)c2ccccc2N)C(=O)O[C@@H]1C (stereo in doubt) [Factor C1]	2.0 µg/mL	2.0 µg/mL	1.0 µg/mL (≈ 0.612 µM)	0.13 µg/mL	2 µg/mL (≈ 1.22 µM)	32.0 µg/mL	0.5 µg/mL (≈ 0.306 µM)	inhibit the growth of certain pathogenic organisms, particularly gram-positive bacteria	5.7 and 5.9	479 ± 32 mg/kg	4 µg/mL (≈ 2.45 µM)	4 µg/mL (≈ 2.45 µM)	50%	50%	> 250 mg/kg	> 365 mg/kg	0.13 µg/mL (≈ 0.0795 µM)	1.0 µg/mL	16.0 µg/mL	4 µg/mL (≈ 2.45 µM)	MIC (Peptococcus prevoti): 2 µg/mL (≈ 1.22 µM); MIC [16]: 0.5 µg/mL; MIC [17]: 64 µg/mL (≈ 39.2 µM); MIC [18]: 0.5 µg/mL; MIC (Streptococcus pyogenes [19]): 0.13 µg/mL (≈ 0.0795 µM); MIC (Eubacterium aerofaciens): 16 µg/mL (≈ 9.79 µM); MIC (Actinomyces isaelii): 4 µg/mL (≈ 2.45 µM); Bioassay (Micrococcus luteus) (Micrococcus luteus): 1663 units/mg; MIC [20]: 0.13 µg/mL; MIC (Clostridium perfringens): 16 µg/mL (≈ 9.79 µM); MIC (Fusobacterium symbiosum): > 128 µg/mL; MIC (Propionibacterium acnes): 8 µg/mL (≈ 4.89 µM); MIC [21]: 0.5 µg/mL; MIC (Bacteroides fragilis): > 128 µg/mL; MIC [22]: 1.0 µg/mL; ED50 (Staphylococcus aureus [23]): 0.22 mg/kg; ED50 (Streptococcus pneumoniae [24]): 0.3 mg/kg; ED50 (Streptococcus pyogenes [25]): 0.064 mg/kg; ED50 (Streptococcus pyogenes [25]; oral administration): 93 mg/kg
CC(C)CCCCCCCCC(=O)N[C@@H](Cc1c[nH]c2ccccc12)C(=O)N[C@@H](CC(N)=O)C(=O)N[C@@H](CC(=O)O)C(=O)N[C@@H]1C(=O)NCC(=O)N[C@@H](CCCN)C(=O)N[C@@H](CC(=O)O)C(=O)N[C@H](C)C(=O)N[C@@H](CC(=O)O)C(=O)NCC(=O)N[C@H](CO)C(=O)N[C@@H]([C@H](C)CC(=O)O)C(=O)N[C@@H](CC(=O)c2ccccc2N)C(=O)O[C@@H]1C [Factor C2]	1.0 µg/mL	1.0 µg/mL	0.25 µg/mL (≈ 0.152 µM)	0.25 µg/mL	1.0 µg/mL (≈ 0.607 µM)	16.0 µg/mL	0.13 µg/mL (≈ 0.0788 µM)	inhibit the growth of certain pathogenic organisms, particularly gram-positive bacteria	5.8 and 5.93	204 ± 17 mg/kg	2 µg/mL (≈ 1.21 µM)	1.0 µg/mL (≈ 0.607 µM)	89%	100%	150 to 250 mg/kg	175 mg/kg	0.13 µg/mL (≈ 0.0788 µM)	0.5 µg/mL	4.0 µg/mL	1.0 µg/mL (≈ 0.607 µM)	pKa (second group) [9]: 7.6 and 7.63; MIC (Peptococcus prevoti): 1.0 µg/mL (≈ 0.607 µM); MIC [16]: 1.0 µg/mL; MIC [17]: 64 µg/mL (≈ 38.8 µM); MIC [18]: 0.13 µg/mL; MIC (Streptococcus pyogenes [19]): 0.13 µg/mL (≈ 0.0788 µM); MIC (Eubacterium aerofaciens): 8 µg/mL (≈ 4.85 µM); MIC (Actinomyces isaelii): 1.0 µg/mL (≈ 0.607 µM); Bioassay (Micrococcus luteus) (Micrococcus luteus): 1390 units/mg; MIC [20]: 0.13 µg/mL; MIC (Clostridium perfringens): 8 µg/mL (≈ 4.85 µM); MIC (Fusobacterium symbiosum): > 128 µg/mL; MIC (Propionibacterium acnes): 2 µg/mL (≈ 1.21 µM); MIC [21]: 0.25 µg/mL; MIC (Bacteroides fragilis): > 128 µg/mL; MIC [22]: 0.25 µg/mL; ED50 (Staphylococcus aureus [23]): 0.16 mg/kg; ED50 (Streptococcus pneumoniae [24]): 0.14 mg/kg; ED50 (Streptococcus pyogenes [25]): 0.032 mg/kg; ED50 (Streptococcus pyogenes [25]; oral administration): 59 mg/kg
